In ChEMBL document CHEMBL1126935, “N-acyl-L-tryptophan benzyl esters: potent substance P receptor antagonists” (J Med Chem, 1993):

Each molecule was assayed against Substance-P receptor (Homo sapiens, UniProt P25103) (assay: Tested against cloned human NK1 receptor by displacement of 125 I -labeled substance P expressed in CHO cells).
Type: cell-based

Sequence of Substance-P receptor (P25103 whole entry): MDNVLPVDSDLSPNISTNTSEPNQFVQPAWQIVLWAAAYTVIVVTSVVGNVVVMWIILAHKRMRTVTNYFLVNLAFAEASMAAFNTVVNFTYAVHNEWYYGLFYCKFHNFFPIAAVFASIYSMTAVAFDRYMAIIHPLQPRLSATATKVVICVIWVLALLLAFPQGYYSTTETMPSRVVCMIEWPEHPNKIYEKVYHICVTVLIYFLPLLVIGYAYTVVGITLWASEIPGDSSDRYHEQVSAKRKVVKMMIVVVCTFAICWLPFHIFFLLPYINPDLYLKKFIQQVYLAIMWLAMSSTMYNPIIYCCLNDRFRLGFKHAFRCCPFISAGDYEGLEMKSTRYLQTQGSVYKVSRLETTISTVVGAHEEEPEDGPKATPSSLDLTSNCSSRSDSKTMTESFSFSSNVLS

SMILES | IC50
N[C@@H](Cc1c[nH]c2ccccc12)C(=O)OCc1ccccc1 | > 10000 nM
Cc1cc(C)cc(COC(=O)[C@H](Cc2c[nH]c3ccccc23)N(C)C)c1 | 553 nM
COc1ccccc1COC(=O)[C@H](Cc1c[nH]c2ccccc12)NC(=O)OC(C)(C)C | 280 nM
CC(C)(C)OC(=O)N[C@@H](Cc1c[nH]c2ccccc12)C(=O)OCc1ccccc1 | 413 nM

The remaining lines, values ahead:

IC50 | SMILES
125 nM | Cc1cc(C)cc(COC(=O)[C@H](Cc2c[nH]c3ccccc23)[N+](C)(C)C)c1
67 nM | CC(=O)N[C@@H](Cc1c[nH]c2ccccc12)C(=O)OCc1cc(C)cc(C)c1 [L-708568]
1530 nM | Cc1cc(C)cc(COC(=O)[C@@H](N)Cc2c[nH]c3ccccc23)c1
